3 compounds from US4751026A, “Substituted anilides of oleic, linoleic, or linolenic acid as inhibitors of acyl-coa:cholesterol acyltransferase” (Warner-Lambert Company, priority 1987, dated 1988) can be followed below.

Test [1] concerns the target T1, acyl-CoA:cholesterol acyltransferase (ACAT) (Oryctolagus cuniculus, UniProt G1SFD9).
T1 construct: in a tissue preparation containing rabbit intestinal microsomes; from tissue; host or cells: rabbit intestine, microsomes
T1 sequence (G1SFD9 1-524): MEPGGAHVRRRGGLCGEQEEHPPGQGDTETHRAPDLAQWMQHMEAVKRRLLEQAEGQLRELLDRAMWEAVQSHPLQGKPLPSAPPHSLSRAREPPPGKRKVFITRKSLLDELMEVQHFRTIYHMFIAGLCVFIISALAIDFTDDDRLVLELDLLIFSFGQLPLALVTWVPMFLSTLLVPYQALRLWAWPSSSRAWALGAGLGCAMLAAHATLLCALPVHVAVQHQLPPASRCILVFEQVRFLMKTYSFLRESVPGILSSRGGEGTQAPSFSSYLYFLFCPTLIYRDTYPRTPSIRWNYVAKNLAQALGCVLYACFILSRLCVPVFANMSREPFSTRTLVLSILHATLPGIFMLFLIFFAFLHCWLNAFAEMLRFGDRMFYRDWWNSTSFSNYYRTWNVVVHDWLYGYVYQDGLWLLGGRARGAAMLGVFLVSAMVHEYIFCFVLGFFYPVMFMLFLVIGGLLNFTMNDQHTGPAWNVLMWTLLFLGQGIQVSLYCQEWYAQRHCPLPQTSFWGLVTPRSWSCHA
The test is described as follows: In vitro inhibition of ACAT: radio-labeled cholesterol oleate formed from radio-labeled oleic acid in rabbit intestinal microsomes. The test is classed as biochemical. The settings on record: inhibition of acylation of cholesterol by oleic acid. Here is the method:
The ability of representative compounds of the present invention to inhibit ACAT was measured using an in vitro test more fully described in Field, F. J. and Salone, R. G., Biochemica et Biophysica 712: 557-570 (1982). The test assesses the ability of a test compound to inhibit the acylation of cholesterol by oleic acid by measuring the amount of radio-labeled cholesterol oleate formed from radio-labeled oleic acid in a tissue preparation containing rabbit intestinal microsomes.
The data appear in Table 1 where they are expressed as IC50 values; i.e. the concentration of test compound required to inhibit 50% […] of the enzyme.

In another test the test system is Serum LDL Cholesterol. The test is described as follows: In vivo serum cholesterol lowering in cholesterol-fed rabbits. Further details: species or system Male, New Zealand white rabbits. The conditions noted are these: cholesterol-enriched diet, oral 50 mg/kg thirty minutes prior to each meal for seven days, three hours after last meal. The source says: Male, New Zealand white rabbits weighing approximately 1 kg were fed a normal diet 40 g per day of rabbit chow (Purina No. 5321, Ralston Purina Co., 711 West Fuesser Road, Mascoutah, Ill., 62224, USA). After six days on this diet, the rabbits were fed 50 g per day for three days of a cholsterol-enriched diet consisting of one part of a cholesterol-containing chow (Purina Catalog No. 841206WLI, 0.25% cholesterol) and two parts of normal chow. Next, the rabbits were fed 60 g per day for four days of a cholsterol-enriched diet consisting of two parts of a cholesterol-containing chow (Purina Catalog No. 814206WLI, 0.25% cholesterol) and one part of normal chow.
After this meal adaptation and cholesterol loading period, the test compounds of this invention were administered to the test animals in oral doses of 50 mg/kg of body weight thirty minutes prior to each meal for seven days. Control animals were administered vehicle only.
The animals were sacrificed three hours after their last meal in the postabsorptive state. Serum cholesterol levels were determined for each animal, and the data appear in Table 2 expressed as percent change in serum cholesterol level compared to control.

The term IC50 denotes the concentration at which inhibition is half-maximal. The low end stands for inhibition by little substance, the high end for a need for much substance.

In test [1], `CCCCCCCC/C=C\CCCCCCCC(=O)Nc1c(OC)cc(OC)cc1OC` [(Z)-N-(2,4,6-Trimethoxyphenyl)-9-octadecenamide] came in with an IC50 of 60 nM. Further, in the test on Serum LDL Cholesterol, the “Percent Change in Serum LDL Cholesterol From Control” value is -53%. Consider `CC/C=C\C/C=C\C/C=C\CCCCCCCC(=O)Nc1c(OC)cc(OC)cc1OC` [(Z,Z,Z)-N-(2,4,6-Trimethoxyphenyl)-9,12,15-octadecatrienamide], for which the IC50 in test [1] was determined as 86 nM.

As to `CCCCC/C=C\C/C=C\CCCCCCCC(=O)Nc1c(OC)cc(OC)cc1OC` [(Z,Z)-N-(2,4,6-Trimethoxyphenyl)-9,12-octadecadienamide], the midpoint of inhibition in test [1], the IC50, lay at 42 nM.
